Assay results: ChEMBL document CHEMBL3868595, “Plazomicin is effective in a non-human primate pneumonic plague model” (Bioorg Med Chem, 2016)

Experiments:
African green monkey [1] = assay: Toxicity in African green monkey B6140 model infected with Yersinia pestis Colorado 92 assessed as blood urea nitrogen level at 25 mg/kg, iv administered within 6 hrs post onset of sustained fever as 30 mins infusion for 10 days (reference value: 24 mg/dl); type: organism-based; settings: chlorocebus sabaeus, in vivo
Yersinia pestis [2] = assay: (§1) Antibacterial activity against Yersinia pestis Colorado 92 infected in African green monkey B6889 model assessed as bacterial burden in lung at 6.25 mg/kg, iv administered within 6 hrs post onset of sustained fever as 30 mins infusion for 5 days (reference value: 7.7 10^8CFU/g); type: functional, CO92
African green monkey [3] = assay: Toxicity in African green monkey B6408 model infected with Yersinia pestis Colorado 92 assessed as serum gamma glutamyl-transferase level at 25 mg/kg, iv administered within 6 hrs post onset of sustained fever as 30 mins infusion for 10 days (reference value: 53 IU/L); type: organism-based; settings: chlorocebus sabaeus, in vivo
Yersinia pestis [4] = assay: Antibacterial activity against Yersinia pestis Colorado 92 infected in African green monkey B6415 model assessed as bacterial burden in spleen at 25 mg/kg, iv administered within 6 hrs post onset of sustained fever as 30 mins infusion for 5 days (reference value: 1.6 10^9CFU/g); type: functional, CO92
[5] = Toxicity in African green monkey B5994 model infected with Yersinia pestis Colorado 92 assessed as total white blood cell count at 25 mg/kg, iv administered within 6 hrs post onset of sustained fever as 30 mins infusion for 10 days (reference value: 8 10^3/microL); type: organism-based; settings: chlorocebus aethiops, in vivo
Yersinia pestis [6] = assay: Antibacterial activity against Yersinia pestis Colorado 92 infected in African green monkey B6469 model assessed as bacterial burden in lung at 25 mg/kg, iv administered within 6 hrs post onset of sustained fever as 30 mins infusion for 5 days (reference value: 7.7 10^8CFU/g); type: functional, CO92
African green monkey [7] = assay: Toxicity in African green monkey assessed as effect on serum creatinine level at 25 mg/kg administered as iv infusion twice daily for 7 consecutive days measured on day 1 by LC-MS/MS analysis; type: organism-based; settings: chlorocebus sabaeus, in vivo
Yersinia pestis [8] = assay: Antibacterial activity against Yersinia pestis Colorado 92 infected in African green monkey B6873 model assessed as bacterial burden in heart at 12.5 mg/kg, iv administered within 6 hrs post onset of sustained fever as 30 mins infusion for 5 days (reference value: 2.6 10^7CFU/g); type: functional, organism-based; settings: CO92
African green monkey [9] = assay: Toxicity in African green monkey B6127 model infected with Yersinia pestis Colorado 92 assessed as elevation of blood urea nitrogen at 25 mg/kg, iv administered within 6 hrs post onset of sustained fever as 30 mins infusion for 10 days; type: organism-based; settings: chlorocebus sabaeus, in vivo
Yersinia pestis [10] = assay: as §1, with “B6672” for “B6889”, “tracheobronchial lymph nodes” for “lung”, “12.5” for “6.25”, “10^9CFU/g)” for “10^8CFU/g)”; type: functional, CO92, Lymph node
African green monkey [11] = assay: Toxicity in African green monkey B5994 model infected with Yersinia pestis Colorado 92 assessed as serum gamma glutamyl-transferase level at 25 mg/kg, iv administered within 6 hrs post onset of sustained fever as 30 mins infusion for 10 days (reference value: 35 IU/L); type: organism-based; settings: chlorocebus sabaeus, in vivo
Yersinia pestis [12] = assay: as §1, with “B6960” for “B6889”, “tracheobronchial lymph nodes” for “lung”, “10^9CFU/g)” for “10^8CFU/g)”; type: functional, CO92, Lymph node
African green monkey [13] = assay: Toxicity in African green monkey 7643 model infected with Yersinia pestis Colorado 92 assessed as serum lactate dehydrogenase level at 25 mg/kg, iv administered within 6 hrs post onset of sustained fever as 30 mins infusion for 10 days (reference value: 278 IU/L); type: organism-based; settings: chlorocebus sabaeus, in vivo
Yersinia pestis [14] = assay: Antibacterial activity against Yersinia pestis Colorado 92 infected in African green monkey B6127 model assessed as bacterial burden in lung at 25 mg/kg, iv administered within 6 hrs post onset of sustained fever as 30 mins infusion for 10 days (reference value: 7.7 10^8CFU/g); type: functional, organism-based; settings: CO92
Yersinia pestis [15] = assay: Antibacterial activity against Yersinia pestis Colorado 92 infected in African green monkey B6106 model assessed as bacterial burden in spleen at 25 mg/kg, iv administered within 6 hrs post onset of sustained fever as 30 mins infusion for 5 days (reference value: 1.6 10^9CFU/g); type: functional, CO92
[16] = Clearance in African green monkey blood at 25 mg/kg administered as iv infusion twice daily for 7 consecutive days measured on day 1 by LC-MS/MS analysis; type: ADME, organism-based; settings: chlorocebus aethiops
Yersinia pestis [17] = assay: Antibacterial activity against Yersinia pestis Colorado 92 infected in African green monkey B6127 model assessed as bacterial burden in spleen at 25 mg/kg, iv administered within 6 hrs post onset of sustained fever as 30 mins infusion for 10 days (reference value: 1.6 10^9CFU/g); type: functional, organism-based; settings: CO92
Yersinia pestis [18] = assay: Antibacterial activity against Yersinia pestis Colorado 92 infected in African green monkey B6960 model assessed as bacterial burden in kidney at 6.25 mg/kg, iv administered within 6 hrs post onset of sustained fever as 30 mins infusion for 5 days (reference value: 7.1 10^7CFU/g); type: functional, CO92
African green monkey [19] = assay: Toxicity in African green monkey 7653 model infected with Yersinia pestis Colorado 92 assessed as serum creatinine level at 25 mg/kg, iv administered within 6 hrs post onset of sustained fever as 30 mins infusion for 10 days (reference value: 0.6 mg/dl); type: organism-based; settings: chlorocebus sabaeus, in vivo
African green monkey [20] = assay: Toxicity in African green monkey B6291 model infected with Yersinia pestis Colorado 92 assessed as blood urea nitrogen level at 25 mg/kg, iv administered within 6 hrs post onset of sustained fever as 30 mins infusion for 10 days (reference value: 24 mg/dl); type: organism-based; settings: chlorocebus sabaeus, in vivo
Yersinia pestis [21] = assay: Antibacterial activity against Yersinia pestis Colorado 92 infected in African green monkey C2083 model assessed as bacterial burden in blood at 12.5 mg/kg, iv administered within 6 hrs post onset of sustained fever as 30 mins infusion for 5 days (reference value: 1.2 10^7CFU/ml); type: functional, CO92
African green monkey [22] = assay: Toxicity in African green monkey B6408 model infected with Yersinia pestis Colorado 92 assessed as serum lactate dehydrogenase level at 25 mg/kg, iv administered within 6 hrs post onset of sustained fever as 30 mins infusion for 10 days (reference value: 249 IU/L); type: organism-based; settings: chlorocebus sabaeus, in vivo
[23] = AUC (0 to 24 hrs) in African green monkey blood at 25 mg/kg administered as iv infusion twice daily for 7 consecutive days measured on day 1 by LC-MS/MS analysis; type: ADME, organism-based; set-up: dose 25 mg/kg, time < 24 hr, route intravenous; settings: chlorocebus aethiops
Yersinia pestis [24] = assay: Antibacterial activity against Yersinia pestis Colorado 92 infected in African green monkey B6106 model assessed as bacterial burden in kidney at 25 mg/kg, iv administered within 6 hrs post onset of sustained fever as 30 mins infusion for 5 days (reference value: 7.1 10^7CFU/g); type: functional, CO92
[25] = Elimination half life in African green monkey blood at 25 mg/kg administered as iv infusion twice daily for 7 consecutive days measured on day 1 by LC-MS/MS analysis; type: ADME, organism-based; settings: chlorocebus aethiops, read-out: beta t1/2 (converted)
Yersinia pestis [26] = assay: Antibacterial activity against Yersinia pestis Colorado 92 infected in African green monkey B6988 model assessed as bacterial burden in liver at 6.25 mg/kg, iv administered within 6 hrs post onset of sustained fever as 30 mins infusion for 5 days (reference value: 5.2 10^8CFU/g); type: functional, CO92
African green monkey [27] = assay: Toxicity in African green monkey B6140 model infected with Yersinia pestis Colorado 92 assessed as serum gamma glutamyl-transferase level at 25 mg/kg, iv administered within 6 hrs post onset of sustained fever as 30 mins infusion for 10 days (reference value: 55 IU/L); type: organism-based; settings: chlorocebus sabaeus, in vivo

## CN[C@@H]1[C@@H](O)[C@@H](O[C@@H]2[C@@H](O)[C@H](O[C@H]3OC(CNCCO)=CC[C@H]3N)[C@@H](N)C[C@H]2NC(=O)[C@@H](O)CCN)OC[C@]1(C)O [PLAZOMICIN]
African green monkey [1]
  Activity: 27 mg/dL
Yersinia pestis [2]
  Activity: 2.2 ×10⁹ CFU/g
African green monkey [3]
  Activity: 56 IU/L
Yersinia pestis [4]
  Activity: 90 CFU/g
[5]
  Activity: 4.5 ×10³ /uL
Yersinia pestis [6]
  Activity: 21 CFU/g
African green monkey [7]
  Activity: 0.55 mg/dL
Yersinia pestis [8]
  Activity: Below limit of detection
African green monkey [9]
  Activity: Toxic
Yersinia pestis [10]
  Activity: 8.3 ×10⁶ CFU/g
African green monkey [11]
  Activity: 38 IU/L
Yersinia pestis [12]
  Activity: 1.6 ×10⁷ CFU/g
African green monkey [13]
  Activity: 606 IU/L
Yersinia pestis [14]
  Activity: Below limit of detection
Yersinia pestis [15]
  Activity: 31 CFU/g
[16]
  clearance: 2.17 mL/min/kg
Yersinia pestis [17]
  Activity: Below limit of detection
Yersinia pestis [18]
  Activity: 72 CFU/g
African green monkey [19]
  Activity: 0.8 mg/dL
African green monkey [20]
  Activity: 21 mg/dL
Yersinia pestis [21]
  Activity: 24 CFU/ml
African green monkey [22]
  Activity: 304 IU/L
[23]
  AUC(0-t) at 24 h: 185 µg·h/mL
Yersinia pestis [24]
  Activity: 17 CFU/g
[25]
  half-life: 1.8 h
Yersinia pestis [26]
  Activity: 17 CFU/g
African green monkey [27]
  Activity: 39 IU/L
